In patent publication US20070149435A1, “Cleansing composition including microencapsulated delivery vehicles” (Kimberly-Clark Worldwide, Inc., priority 2005, published 2007):
Like-named read-outs stand apart in the source and are kept apart here.

What was measured:
Staphylococcus aureus = experiment: Biocidal efficacy of magnesium chloride in combination with PHMB, total plate count; assay type: cell-based; conditions: 15-minute contact time
Procedure: A 1.5-milliliter tube was prepared using magnesium chloride in water.
Two control samples were also prepared. One control sample was filled with 0.850 milliliters magnesium chloride. A second control sample was prepared by introducing 0.850 milliliters sterile water.
The tubes were then vortexed until an increase in temperature was observed.
0.05 milliliters of 1×10^7 CFU/milliliter culture of Staphylococcus aureus was added to each tube. After a 15-minute contact time, 0.1 milliliters of each tube was transferred into 0.9 milliliters letheen broth. To the broth, 10 milligrams/milliliter sodium thiosulfate was also added. The tubes were again vortexed. After vortexing, 0.1 milliliters of each tube was plated on Tryptic soy agar plates. The plates were inverted and incubated at 37° C. for 24 hours. An inoculum control plate was also plated to determine the concentration of the inoculum
After 24 hours, the plates were evaluated using a total plate count to determine the biocidal efficacy of each sample.

[1] = system: Methicillin-resistant Staphylococcus aureus; conditions: 0.005% PHMB, 10-minute contact time, 5% bovine serum albumin soil, n = 2
Procedure: This Example utilized 1.5-milliliter tubes containing a 1-milliliter blend of phosphate-buffered saline (pH 7.2) and 5% (w/v) bovine serum albumin soil. The tubes were placed in electric heat blocks set for 22° C., 30° C., 40° C. and 50° C., respectively. The tubes remained in the electric heat blocks for approximately 10 minutes.
After 10 minutes, 0.005% (by weight) active polyhexamehtylene biguanide (PHMB) (commercially available as Cosmocil® CQ from Arch Biocides, Inc., United Kingdom) was added to two tubes at each temperature level. Duplicate tubes without PHMB at each temperature were also made.
The tubes were then vortexed and Methicillin-resistant Staphylococcus aureus (approximately 1×10^5 colony forming units (CFU)) was then added to each tube. All of the tubes were then placed back into the heat blocks at their respective temperatures.
Following a 10-minute contact time, 0.1 milliliters of each sample was transferred to 0.9 milliliters letheen broth to neutralize the PHMB activity. The letheen samples were then plated in duplicate on Tryptic Soy agar plates using a WASP2 spiral plater (commercially available from Don Whitley Scientific, Ltd., Yorkshire, United Kingdom). The plates were inverted and incubated at 37±2° C. for 48 hours.
After 48 hours, the plates were evaluated using a total plate count to determine the biocidal efficacy of each sample.

[Cl-].[Cl-].[Mg+2] [Magnesium Chloride, magnesium chloride]
LOG10 recovered (Staphylococcus aureus; PHMB 0%, magnesium chloride 50%): 1.9

polyhexamethylene biguanide [PHMB]
LOG10 recovered (Staphylococcus aureus; PHMB 0.00025%, magnesium chloride 0%): 4.8
Total CFU Recovered MRSA ([1]; 22° C.): 3.5
Total CFU Recovered MRSA ([1]; 30° C.): 2.9
Total CFU Recovered MRSA ([1]; 40° C.): 2.1
Total CFU Recovered MRSA ([1]; 50° C.): <2
